This passage reports EC50 and Emax results from US20250145600A1, “2-((4-((S)-2-(4-CHLORO-2-FLUOROPHENYL)-2-METHYLBENZO[D][1,3]DIOXOL-4-YL)PIPERIDIN-1-YL)METHYL)-1-(((S)-OXETAN-2-YL)METHYL)-1H-IMIDAZOLE DERIVATIVES AS ACTIVATORS OF THE GLP1 RECEPTOR FOR THE TREATMENT OF OBESITY” (Novartis AG, priority 2022, published 2025).

This assay concerns the target human GLP1R (Homo sapiens, UniProt P43220). Description: Human GLP1R DERET internalization assay. In kind it is cell-based. The settings on record: HEK293-SNAP-hGLP1R-GloSensor cells; for EC50: top concentration 30 μM; for Emax: relative to GLP1(7-36). As for the experimental part:
Compounds of formula (I) according to the invention were tested in the following cellular assays that measure the intracellular cAMP concentration, beta-arrestin recruitment and receptor internalization. The cAMP is generated by the activation of GLP1R. The extent to which the GLP1R is internalized into the cell and away from the plasma membrane following activation is also shown in Table 2. EC50 for each assay is defined as the concentration of the compound that leads to half of the maximum response (after baseline correction). Emax is defined as the maximum response observed for the test compound, normalized to the maximum response observed for the endogenous ligand (GLP1(7-36)) to GLP1R.
Human GLP1R DERET Internalization Assay
The extent to which agonists internalize the human GLP1R was determined based on an optimized version of a RealTime FRET-based ‘DERET’ (Dissociation Enhanced Resonance Energy Transfer) assay. The technology relies on labeling of the SNAP-tagged GPCR with a SNAP-Lumi-Terbium (donor fluorophore, Cisbio, cat #SSNPTBD). The compounds are incubated with the cells over-expressing the GPCR of interest in the presence of an excess of fluorescein (acceptor fluorophore). When the GPCR is on the cell surface, the donor signal is quenched by the acceptor and the donor/acceptor ratio is low. As the GPCR internalizes, the donor signal is no longer quenched, and the acceptor is no longer excited so the donor/acceptor ratio increases.
HEK293-SNAP-hGLP1R-GloSensor cells (stably overexpressing SNAP-tagged hGLP1R) were seeded overnight in white 384-well poly-D-Lysine coated plates (Greiner Bio One, cat #781945) in regular DMEM growth medium (Gibco, cat #11965-092, 10% heat-inactivated FBS, 10 mM HEPES, 1× penicillin/streptomycin, 0.5 mg/mL geneticin (Gibco, cat #10131-035) and 0.25 mg/mL hygromycin B (Invitrogen, cat #10687010). On the assay day, cell medium was removed and 100 nM SNAP-Lumi-Tb reagent was added in Opti-MEM solution. The cells were incubated at 37° C. for 1 h. Cells were washed using a plate washer in assay buffer [1×HBSS (10× Gibco, cat #14065-056), 20 mM Hepes (Gibco, cat #15630-080), 1 mM CaCl2 (Fluka, cat #21114-1L), 1 mM MgCl2 (Ambion, cat #AM9530G) pH7.4], and 20 μL buffer with 0.1% BSA was added to each well. After leaving cells to equilibrate for […] at 37° C., 10 μL of Fluorescein (sodium salt, Sigma, cat #F6377, diluted in buffer) was added at 25 μM final concentration. To generate triplicate dose response curves, compounds were serially diluted 3-fold in assay buffer, then added to the cell assay plate to a final volume of 40 μL and final top concentrations starting at 30 μM. In the same plate and assay buffer as the tested compounds, a GLP1 (7-36) peptide (Bachem, cat #H-6795) control curve was included at a final top concentration of 1 μM in order to establish EC100. EC0 wells with buffer only were also included. The plate FRET fluorescence was measured immediately using a Perkin Elmer Envision with LANCE/DELFIA D400 single mirror, excitation filter X320, and emission filters M615_203 (donor emission) and M515 (acceptor emission), and then measured every 30 min. […] Plates were kept at 37° C. between reads. Data was expressed as the ratio of donor/acceptor emissions using Microsoft Excel and plotted in GraphPad Prism. In order to determine EC50 and Emax for internalization, data was calculated and expressed as percent of the GLP1 (7-36) EC100 control wells: [(sample signal−mean EC0 signal)/(mean EC100 of GLP1 (7-36) signal−mean EC0 signal)]*100 using Microsoft Excel. Curve fitting for EC50 determinations was performed using GraphPad Prism. The 4-parameter logistic model, Hill slope was used:
where Y is the functional response; X is the compound concentration; bottom is A0 or the minimum value (at 0 dose); top is Ainf or the maximum value (at infinite dose); EC50 is the point of inflection (i.e. the point on the sigmoid shaped curve halfway between A0 and Ainf). […]

Sequence of human GLP1R (P43220 24-463): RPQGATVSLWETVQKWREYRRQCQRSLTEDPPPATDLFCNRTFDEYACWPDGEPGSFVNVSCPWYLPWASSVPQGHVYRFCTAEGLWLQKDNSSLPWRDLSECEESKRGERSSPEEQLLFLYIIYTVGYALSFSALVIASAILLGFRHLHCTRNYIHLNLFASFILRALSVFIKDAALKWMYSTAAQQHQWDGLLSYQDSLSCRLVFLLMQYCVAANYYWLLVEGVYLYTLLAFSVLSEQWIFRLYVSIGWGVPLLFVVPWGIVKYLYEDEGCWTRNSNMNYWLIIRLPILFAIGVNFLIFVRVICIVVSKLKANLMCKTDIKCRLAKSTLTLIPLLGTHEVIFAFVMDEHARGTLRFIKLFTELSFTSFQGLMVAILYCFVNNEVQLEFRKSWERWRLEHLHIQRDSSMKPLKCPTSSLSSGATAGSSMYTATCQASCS

With `Cc1c(-c2nc(C(F)(F)F)c(C(=O)O)o2)nc(CN2CCC(c3cccc4c3O[C@@](C)(c3ccc(Cl)cc3F)O4)CC2)n1C[C@@H]1CCO1` [Compound C-14, 2-(2-((4-((S)-2-(4-chloro-2-fluorophenyl)-2-methylbenzo[d][1,3]dioxol-4-yl)piperidin-1-yl)methyl)-5-methyl-1-(((S)-oxetan-2-yl)methyl)-1H-imidazol-4-yl)-4-(trifluoromethyl)oxazole-5-carboxylic acid], the EC50 was above 30 µM and the Emax came out at 20%.

With `C[C@]1(c2ccc(Cl)cc2F)Oc2cccc(C3CCN(Cc4nc(C(F)(F)F)c(-c5nc(C(=O)O)co5)n4C[C@@H]4CCO4)CC3)c2O1` [Compound C-4, 2-(2-((4-((S)-2-(4-chloro-2-fluorophenyl)-2-methylbenzo[d][1,3]dioxol-4-yl)piperidin-1-yl)methyl)-1-(((S)-oxetan-2-yl)methyl)-4-(trifluoromethyl)-1H-imidazol-5-yl)oxazole-4-carboxylic acid], the EC50 was above 30 µM and the Emax is 1%.

`Cc1c(-c2ccc(C(=O)O)o2)nc(CN2CCC(c3cccc4c3O[C@@](C)(c3ccc(Cl)cc3F)O4)CC2)n1C[C@@H]1CCO1` [Compound C-24, 5-(2-((4-((S)-2-(4-chloro-2-fluorophenyl)-2-methylbenzo[d][1,3]dioxol-4-yl)piperidin-1-yl)methyl)-5-methyl-1-(((S)-oxetan-2-yl)methyl)-1H-imidazol-4-yl)furan-2-carboxylic acid] yielded an EC50 of 0.49 µM and an Emax of 19%.

The compound `Cc1c(-c2cnc(C(=O)O)o2)nc(CN2CCC(c3cccc4c3O[C@@](C)(c3ccc(Cl)cc3F)O4)CC2)n1C[C@@H]1CCO1` [Compound C-16, 5-(2-((4-((S)-2-(4-chloro-2-fluorophenyl)-2-methylbenzo[d][1,3]dioxol-4-yl)piperidin-1-yl)methyl)-5-methyl-1-(((S)-oxetan-2-yl)methyl)-1H-imidazol-4-yl)oxazole-2-carboxylic acid] returned an EC50 of 2.94 µM and an Emax of 50%.

`Cc1c(-c2coc(C(=O)O)n2)nc(CN2CCC(c3cccc4c3O[C@@](C)(c3ccc(Cl)cc3F)O4)CC2)n1C[C@@H]1CCO1` [Compound C-18, 4-(2-((4-((S)-2-(4-chloro-2-fluorophenyl)-2-methylbenzo[d][1,3]dioxol-4-yl)piperidin-1-yl)methyl)-5-methyl-1-(((S)-oxetan-2-yl)methyl)-1H-imidazol-4-yl)oxazole-2-carboxylic acid] yielded an EC50 of 2.38 µM and an Emax of 86%.

As to `Cc1c(-c2cc(C(=O)O)n(C)n2)nc(CN2CCC(c3cccc4c3O[C@@](C)(c3ccc(Cl)cc3F)O4)CC2)n1C[C@@H]1CCO1` [Compound C-17, 3-(2-((4-((S)-2-(4-chloro-2-fluorophenyl)-2-methylbenzo[d][1,3]dioxol-4-yl)piperidin-1-yl)methyl)-5-methyl-1-(((S)-oxetan-2-yl)methyl)-1H-imidazol-4-yl)-1-methyl-1H-pyrazole-5-carboxylic acid], the EC50 is above 30 µM and the Emax is 6%.

Turning to `Cc1cc(-c2nc(CN3CCC(c4cccc5c4O[C@@](C)(c4ccc(Cl)cc4F)O5)CC3)n(C[C@@H]3CCO3)c2C)oc1C(=O)O` [Compound C-19, 5-(2-((4-((S)-2-(4-chloro-2-fluorophenyl)-2-methylbenzo[d][1,3]dioxol-4-yl)piperidin-1-yl)methyl)-5-methyl-1-(((S)-oxetan-2-yl)methyl)-1H-imidazol-4-yl)-3-methylfuran-2-carboxylic acid], the EC50 was above 30 µM and the Emax is 34%.

`Cc1oc(-c2nc(CN3CCC(c4cccc5c4O[C@@](C)(c4ccc(Cl)cc4F)O5)CC3)n(C[C@@H]3CCO3)c2C)nc1C(=O)O` [Compound C-12, 2-(2-((4-((S)-2-(4-chloro-2-fluorophenyl)-2-methylbenzo[d][1,3]dioxol-4-yl)piperidin-1-yl)methyl)-5-methyl-1-(((S)-oxetan-2-yl)methyl)-1H-imidazol-4-yl)-5-methyloxazole-4-carboxylic acid] showed an EC50 above 30 µM and an Emax of 45%.

Regarding `Cc1nc(CN2CCC(c3cccc4c3O[C@@](C)(c3ccc(Cl)cc3F)O4)CC2)n(C[C@@H]2CCO2)c1-c1nc(C(=O)O)c(C)o1` [Compound C-1, 2-(2-((4-((S)-2-(4-chloro-2-fluorophenyl)-2-methylbenzo[d][1,3]dioxol-4-yl)piperidin-1-yl)methyl)-4-methyl-1-(((S)-oxetan-2-yl)methyl)-1H-imidazol-5-yl)-5-methyloxazole-4-carboxylic acid], the EC50 was above 30 µM and the Emax was determined as 8%.

On to `CCc1nc(CN2CCC(c3cccc4c3O[C@@](C)(c3ccc(Cl)cc3F)O4)CC2)n(C[C@@H]2CCO2)c1-c1nc(C(=O)O)co1` [Compound C-5, 2-(2-((4-((S)-2-(4-chloro-2-fluorophenyl)-2-methylbenzo[d][1,3]dioxol-4-yl)piperidin-1-yl)methyl)-4-ethyl-1-(((S)-oxetan-2-yl)methyl)-1H-imidazol-5-yl)oxazole-4-carboxylic acid], for which the EC50 was above 30 µM and the Emax is 6%.

In the case of `Cc1nc(CN2CCC(c3cccc4c3O[C@@](C)(c3ccc(Cl)cc3F)O4)CC2)n(C[C@@H]2CCO2)c1-c1coc(C(=O)O)n1` [Compound C-20, 4-(2-((4-((S)-2-(4-chloro-2-fluorophenyl)-2-methylbenzo[d][1,3]dioxol-4-yl)piperidin-1-yl)methyl)-4-methyl-1-(((S)-oxetan-2-yl)methyl)-1H-imidazol-5-yl)oxazole-2-carboxylic acid], the EC50 is above 30 µM and the Emax was found to be 5%.

In turn, `Cc1c(-c2nc(C(=O)O)co2)nc(CN2CCC(c3cccc4c3O[C@@](C)(c3ccc(Cl)cc3F)O4)CC2)n1C[C@@H]1CCO1` [Compound C-13, 2-(2-((4-((S)-2-(4-chloro-2-fluorophenyl)-2-methylbenzo[d][1,3]dioxol-4-yl)piperidin-1-yl)methyl)-5-methyl-1-(((S)-oxetan-2-yl)methyl)-1H-imidazol-4-yl)oxazole-4-carboxylic acid] returned an EC50 of 1.28 µM and an Emax of 42%.

Take `Cc1nc(CN2CCC(c3cccc4c3O[C@@](C)(c3ccc(Cl)cc3F)O4)CC2)n(C[C@@H]2CCO2)c1-c1cc(C(=O)O)n(C)n1` [Compound C-21, 3-(2-((4-((S)-2-(4-chloro-2-fluorophenyl)-2-methylbenzo[d][1,3]dioxol-4-yl)piperidin-1-yl)methyl)-4-methyl-1-(((S)-oxetan-2-yl)methyl)-1H-imidazol-5-yl)-1-methyl-1H-pyrazole-5-carboxylic acid]: the EC50 is above 30 µM and the Emax amounted to 2%.

As to `Cc1nc(CN2CCC(c3cccc4c3O[C@@](C)(c3ccc(Cl)cc3F)O4)CC2)n(C[C@@H]2CCO2)c1-c1nc(C(=O)O)co1` [Compound C-9, 2-(2-((4-((S)-2-(4-chloro-2-fluorophenyl)-2-methylbenzo[d][1,3]dioxol-4-yl)piperidin-1-yl)methyl)-4-methyl-1-(((S)-oxetan-2-yl)methyl)-1H-imidazol-5-yl)oxazole-4-carboxylic acid], the EC50 is above 30 µM and the Emax turned out to be 11%.
